Values of other authors as cited in US8440231B2, “Swellable particles for drug delivery” (STC.UNM, priority 2006, dated 2013).

soluble in water: 100 mg/mL
Compound: CC(=O)N[C@@H](CS)C(=O)O [NACS, N-acetylcysteine]
